The source of these data is patent publication US20220009915A1, “CHEMICAL PROBES AND METHODS OF USE THEREOF” (City University of Hong Kong, priority 2020, published 2022).

Molecules are shown by their SMILES.

Holding throughout (type): biochemical
Experiment [1] addresses T1, Sirt2 (Homo sapiens, UniProt Q8IXJ6).
T1 construct: made in house
T1 sequence (Q8IXJ6 1-389): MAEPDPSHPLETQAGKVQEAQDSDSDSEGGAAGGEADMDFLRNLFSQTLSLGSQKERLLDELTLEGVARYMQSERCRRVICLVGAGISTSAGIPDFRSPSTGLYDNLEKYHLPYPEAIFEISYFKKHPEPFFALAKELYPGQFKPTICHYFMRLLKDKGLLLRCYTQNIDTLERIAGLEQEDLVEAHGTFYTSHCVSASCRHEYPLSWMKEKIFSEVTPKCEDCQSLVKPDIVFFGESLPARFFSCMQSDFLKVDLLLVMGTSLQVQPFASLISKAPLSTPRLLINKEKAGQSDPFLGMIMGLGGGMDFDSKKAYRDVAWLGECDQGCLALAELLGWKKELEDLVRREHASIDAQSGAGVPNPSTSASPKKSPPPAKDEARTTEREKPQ
The experiment is described as follows: Fluorimeter delipoylation assay of probe KTlip with Sirt2. The protocol: (§1) The probe KTlip following was first synthesized. The capacity of HDACs to recognize and remove the lipoyl group of KTlip was then examined by a fluorimeter assay. Briefly, KTlip was incubated with various HDACs at 37° C. in HEPES buffer (pH 8.0). The fluorescence of the enzymatic reactions was then measured accordingly. […] Further HPLC and MS analysis confirmed that the molecular weight of the newly generated peak corresponded to the expected tandem delipoylated/exchanged product (FIG. 4A,B). […] After enzymatic reaction with Sirt2, a shift of peak absorption from 380 nm to 480 nm was clearly observed. (FIG. 4C). Through detailed kinetic study, the first-order rate constant of the reaction was determined to be 0.013 min−1. […]
(§2) The probe KTlip was incubated with sirtuin and NAD+ at 37° C. in 20 mM HEPES buffer (pH 8.0) containing 150 mM NaCl, 1 mM MgCl2, and 2.7 mM KCl. […] When the enzymatic reaction was complete, the reaction was applied for absorption and fluorescence measurement. The parameter set for absorbance measurement was as follows: UV-visible light, collection region: 300-550 nm. The parameter set for fluorescence measurements was as follows: λex=480 nm, slit width: 5 nm, collection region: 510-600 nm.

Experiment [2] deals with T2, Sirt5 (Homo sapiens, UniProt Q9NXA8).
T2 construct: made in house
T2 sequence (Q9NXA8 37-310): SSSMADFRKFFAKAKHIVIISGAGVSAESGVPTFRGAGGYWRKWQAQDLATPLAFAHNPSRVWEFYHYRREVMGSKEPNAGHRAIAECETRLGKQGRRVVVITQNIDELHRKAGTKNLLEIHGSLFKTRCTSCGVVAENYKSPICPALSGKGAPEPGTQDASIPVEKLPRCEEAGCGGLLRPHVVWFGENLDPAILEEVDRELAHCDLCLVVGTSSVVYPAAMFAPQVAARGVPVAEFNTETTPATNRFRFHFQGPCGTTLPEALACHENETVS
The experiment is described as follows: Fluorimeter delipoylation assay of probe KTlip with Sirt5. The following applies: KTlip incubated with Sirt5 at 37° C. in HEPES buffer (pH 8.0). The protocol:
as §1, §2

In experiment [3] the target is T3, Sirt3 (Homo sapiens, UniProt Q9NTG7).
T3 construct: made in house
T3 sequence (Q9NTG7 1-399): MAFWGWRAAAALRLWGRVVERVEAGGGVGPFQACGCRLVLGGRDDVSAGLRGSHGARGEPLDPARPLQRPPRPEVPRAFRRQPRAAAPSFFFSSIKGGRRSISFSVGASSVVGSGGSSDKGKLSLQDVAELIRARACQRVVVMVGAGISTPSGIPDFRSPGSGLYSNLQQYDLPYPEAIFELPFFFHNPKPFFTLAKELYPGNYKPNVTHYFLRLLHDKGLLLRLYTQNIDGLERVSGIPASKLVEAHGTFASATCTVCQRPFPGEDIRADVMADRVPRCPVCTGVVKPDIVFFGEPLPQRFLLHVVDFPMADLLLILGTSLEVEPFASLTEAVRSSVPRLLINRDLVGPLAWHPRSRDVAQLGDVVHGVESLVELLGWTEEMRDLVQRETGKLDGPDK
The experiment is described as follows: Fluorimeter delipoylation assay of probe KTlip with Sirt3. Conditions: KTlip incubated with Sirt3 at 37° C. in HEPES buffer (pH 8.0). The procedure: as §1, §2

For experiment [4], the target named is T4, HDAC8 (Homo sapiens, UniProt Q9BY41).
T4 sequence (Q9BY41 1-377): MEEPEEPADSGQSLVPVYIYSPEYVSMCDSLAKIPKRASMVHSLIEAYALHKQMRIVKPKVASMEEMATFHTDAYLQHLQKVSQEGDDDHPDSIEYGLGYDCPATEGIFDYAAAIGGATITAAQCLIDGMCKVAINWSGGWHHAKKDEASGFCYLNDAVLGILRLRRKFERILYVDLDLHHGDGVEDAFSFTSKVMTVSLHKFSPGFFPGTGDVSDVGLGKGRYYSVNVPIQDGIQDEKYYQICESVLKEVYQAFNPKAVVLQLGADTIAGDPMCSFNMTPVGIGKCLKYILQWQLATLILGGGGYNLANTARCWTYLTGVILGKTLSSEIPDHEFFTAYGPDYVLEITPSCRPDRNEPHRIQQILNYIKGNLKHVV
The experiment is described as follows: HPLC analysis of the enzymatic reaction of KTlip with HDAC8. Conditions: KTlip 40 μM, HDAC8 80 ng/μl, 20 mM HEPES pH 8.0, 2 hours reaction. The procedure:
FIG. 6 depicts HPLC analysis of the enzymatic reaction of KTlip (40 μM) with HDAC8 (80 ng/μl) in the reaction buffer (20 mM HEPES buffer at pH 8.0, 150 mM NaCl, 1 mM MgCl2 and 2.7 mM KCl).
The probe KTlip following was first synthesized. The capacity of HDACs to recognize and remove the lipoyl group of KTlip was then examined by a fluorimeter assay. Briefly, KTlip was incubated with various HDACs at 37° C. in HEPES buffer (pH 8.0). The fluorescence of the enzymatic reactions was then measured accordingly. […] Further HPLC and MS analysis confirmed that the molecular weight of the newly generated peak corresponded to the expected tandem delipoylated/exchanged product (FIG. 4A,B). […] After enzymatic reaction with Sirt2, a shift of peak absorption from 380 nm to 480 nm was clearly observed. (FIG. 4C). Through detailed kinetic study, the first-order rate constant of the reaction was determined to be 0.013 min−1. The Km value of KTlip obtained from the fluorescent method matched well with that from the traditional HPLC method (FIG. 5), underscoring that probe KTlip can serve as a useful tool for detecting enzymatic delipoylation activity.

In experiment [5] the target is T5, Sirt6 (Homo sapiens, UniProt Q8N6T7).
T5 construct: made in house
T5 sequence (Q8N6T7 whole entry, species assumed): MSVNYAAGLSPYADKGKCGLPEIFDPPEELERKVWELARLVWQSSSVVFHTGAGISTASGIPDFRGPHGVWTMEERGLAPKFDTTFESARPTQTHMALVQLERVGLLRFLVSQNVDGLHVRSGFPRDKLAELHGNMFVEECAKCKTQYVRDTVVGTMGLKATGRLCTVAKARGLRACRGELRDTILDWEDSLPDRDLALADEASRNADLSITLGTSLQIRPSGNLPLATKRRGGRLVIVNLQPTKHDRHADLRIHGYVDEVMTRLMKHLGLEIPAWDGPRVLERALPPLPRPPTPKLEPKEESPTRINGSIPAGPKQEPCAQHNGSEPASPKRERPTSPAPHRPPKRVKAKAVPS
Kind of experiment: Fluorimeter delipoylation assay of probe KTlip with Sirt6. Conditions: KTlip incubated with Sirt6 at 37° C. in HEPES buffer (pH 8.0). The procedure: as §1, §2

The target in experiment [6] is T6, Sirt1 (Homo sapiens, UniProt Q96EB6).
T6 construct: made in house
T6 sequence (Q96EB6 1-747): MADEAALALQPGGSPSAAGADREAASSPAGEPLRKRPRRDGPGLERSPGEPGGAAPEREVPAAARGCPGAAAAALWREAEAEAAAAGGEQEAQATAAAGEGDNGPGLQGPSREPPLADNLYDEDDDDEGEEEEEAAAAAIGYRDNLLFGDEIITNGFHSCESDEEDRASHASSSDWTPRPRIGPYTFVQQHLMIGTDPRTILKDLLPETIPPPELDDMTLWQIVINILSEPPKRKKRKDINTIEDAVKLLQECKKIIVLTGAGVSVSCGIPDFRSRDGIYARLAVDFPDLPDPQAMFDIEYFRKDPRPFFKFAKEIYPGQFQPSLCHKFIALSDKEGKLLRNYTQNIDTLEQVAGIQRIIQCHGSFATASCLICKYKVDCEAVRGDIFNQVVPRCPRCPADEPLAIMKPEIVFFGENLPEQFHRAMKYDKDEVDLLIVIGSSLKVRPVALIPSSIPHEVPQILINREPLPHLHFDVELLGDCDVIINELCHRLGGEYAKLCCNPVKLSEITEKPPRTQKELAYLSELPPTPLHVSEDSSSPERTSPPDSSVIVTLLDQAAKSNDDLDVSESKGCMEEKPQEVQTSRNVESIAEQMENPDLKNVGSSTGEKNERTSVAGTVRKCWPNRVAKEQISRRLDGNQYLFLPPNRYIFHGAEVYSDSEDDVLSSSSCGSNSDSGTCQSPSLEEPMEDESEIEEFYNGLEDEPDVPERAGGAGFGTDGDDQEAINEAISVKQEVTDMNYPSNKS
The experiment is described as follows: Fluorimeter delipoylation assay of probe KTlip with Sirt1. Conditions: KTlip incubated with Sirt1 at 37° C. in HEPES buffer (pH 8.0); compared with Sirt2. The protocol: as §1, §2

Experiment [7] deals with T4, HDAC8. Kind of experiment: Fluorimeter delipoylation assay of probe KTlip with HDAC8. The following applies: KTlip incubated with HDAC8 at 37° C. in HEPES buffer (pH 8.0). The protocol:
as §1, §2

As to `CC(C)(C)OC(=O)N[C@@H](CCCCNC(=O)CCCCC1CCSS1)C(=O)NCCOCCOc1ccc([N+](=O)[O-])c2nonc12` (some centres unmarked) [KTlip], the fluorescence increase in experiment [1] (KTlip incubated with Sirt2 at 37° C. in HEPES buffer (pH 8.0), NAD+, λex 480 nm) is 60 fold; in experiment [2] it was “did not show a noticeable fluorescence increase”; in experiment [3], “did not show a noticeable fluorescence increase”; in experiment [5], “did not show a noticeable fluorescence increase”; in experiment [7] it was “did not show a noticeable fluorescence increase”. In addition, the “first-order rate constant of the reaction” value in experiment [1] (delipoylation of KTlip by Sirt2, fit of fluorescence data to 1−exp(−kt)) came out at 0.013 min⁻¹. In addition, in experiment [4], the “delipoylated product (HPLC)” value is “no delipoylated product observed”. Also, in experiment [6], the fluorescence signal result is on record as “much lower fluorescence signal”.
